In ChEMBL document CHEMBL1136848, “Parallel medicinal chemistry approaches to selective HDAC1/HDAC2 inhibitor (SHI-1:2) optimization” (Bioorg Med Chem Lett, 2009):
Activity calls are given as the source filed them. No cut-off for these calls is given here.

Experiments:
HCT-116 [1] = assay: Antiproliferative activity against human HCT116 cells expressing HDAC after 96 hrs; assay type: functional, cell-based; details: for IC50: HCT-116, 96 h
Histone deacetylase 1 = Histone deacetylase 1 (Homo sapiens, UniProt Q13547); assay: Inhibition of C-terminal FLAG-tagged human HDAC1 overexpressed in mammalian cells by plate reader method; assay type: cell-based
HCT-116 [2] = assay: Antiproliferative activity against human HCT116 cells expressing HDAC after 72 hrs; assay type: functional, cell-based; details: HCT-116, 72 h
Histone deacetylase 3 = Histone deacetylase 3 (Homo sapiens, UniProt O15379); assay: Inhibition of C-terminal FLAG-tagged human HDAC3 overexpressed in mammalian cells by plate reader method; assay type: cell-based
[3] = biological target: T1, Voltage-gated inwardly rectifying potassium channel KCNH2 (Homo sapiens, UniProt Q12809)
[4] = Clearance in rat plasma; assay type: ADME, organism-based
[5] = Half life in rat plasma; assay type: ADME, organism-based
Homo sapiens = species: Homo sapiens; assay: Selectivity ratio of IC50 for C-terminal FLAG-tagged human HDAC3 to IC50 C-terminal FLAG-tagged human HDAC1
[6] = Bioavailability in rat plasma; assay type: ADME, organism-based
[7] = Volume of distribution in rat plasma; assay type: ADME, organism-based
[8] = Volume of distribution at steady state in rat at 2 mg/kg, iv; assay type: ADME, organism-based; design: dose 2 mg/kg, route intravenous; details: in vivo, read-out: Vdss
[9] = Increase in acetylated H2B/Total H2B ratio in acute in-vivo HCT116 xenograft model at 25 mg/kg, ip; assay type: functional; details: route intraperitoneal
[10] = biological target: T1, Voltage-gated inwardly rectifying potassium channel KCNH2; assay: Inhibition of human ERG at < 10 uM
[11] = Half life in dog at 0.5 mg/kg, iv; assay type: ADME, organism-based, Canis lupus familiaris; design: dose 0.5 mg/kg, route intravenous; details: in vivo
[12] = Half life in rat at 2 mg/kg, iv; assay type: ADME, organism-based; design: dose 2 mg/kg, route intravenous; details: in vivo
[13] = Clearance in rat at 2 mg/kg, iv; assay type: ADME, organism-based; design: dose 2 mg/kg, route intravenous; details: in vivo
[14] = Inhibition of calcium ion channel at < 10 uM
[15] = Oral bioavailability in rat at 4 mg/kg; assay type: ADME, organism-based; details: in vivo
[16] = Clearance in dog at 0.5 mg/kg, iv; assay type: ADME, organism-based, Canis lupus familiaris; design: dose 0.5 mg/kg, route intravenous; details: in vivo
[17] = Oral bioavailability in dog at 1 mg/kg, po; assay type: ADME, organism-based, Canis lupus familiaris; details: in vivo
[18] = Volume of distribution at steady state in dog at 0.5 mg/kg, iv; assay type: ADME, organism-based, Canis lupus familiaris; design: dose 0.5 mg/kg, route intravenous; details: in vivo, read-out: Vdss

T1 sequence (Q12809 whole entry): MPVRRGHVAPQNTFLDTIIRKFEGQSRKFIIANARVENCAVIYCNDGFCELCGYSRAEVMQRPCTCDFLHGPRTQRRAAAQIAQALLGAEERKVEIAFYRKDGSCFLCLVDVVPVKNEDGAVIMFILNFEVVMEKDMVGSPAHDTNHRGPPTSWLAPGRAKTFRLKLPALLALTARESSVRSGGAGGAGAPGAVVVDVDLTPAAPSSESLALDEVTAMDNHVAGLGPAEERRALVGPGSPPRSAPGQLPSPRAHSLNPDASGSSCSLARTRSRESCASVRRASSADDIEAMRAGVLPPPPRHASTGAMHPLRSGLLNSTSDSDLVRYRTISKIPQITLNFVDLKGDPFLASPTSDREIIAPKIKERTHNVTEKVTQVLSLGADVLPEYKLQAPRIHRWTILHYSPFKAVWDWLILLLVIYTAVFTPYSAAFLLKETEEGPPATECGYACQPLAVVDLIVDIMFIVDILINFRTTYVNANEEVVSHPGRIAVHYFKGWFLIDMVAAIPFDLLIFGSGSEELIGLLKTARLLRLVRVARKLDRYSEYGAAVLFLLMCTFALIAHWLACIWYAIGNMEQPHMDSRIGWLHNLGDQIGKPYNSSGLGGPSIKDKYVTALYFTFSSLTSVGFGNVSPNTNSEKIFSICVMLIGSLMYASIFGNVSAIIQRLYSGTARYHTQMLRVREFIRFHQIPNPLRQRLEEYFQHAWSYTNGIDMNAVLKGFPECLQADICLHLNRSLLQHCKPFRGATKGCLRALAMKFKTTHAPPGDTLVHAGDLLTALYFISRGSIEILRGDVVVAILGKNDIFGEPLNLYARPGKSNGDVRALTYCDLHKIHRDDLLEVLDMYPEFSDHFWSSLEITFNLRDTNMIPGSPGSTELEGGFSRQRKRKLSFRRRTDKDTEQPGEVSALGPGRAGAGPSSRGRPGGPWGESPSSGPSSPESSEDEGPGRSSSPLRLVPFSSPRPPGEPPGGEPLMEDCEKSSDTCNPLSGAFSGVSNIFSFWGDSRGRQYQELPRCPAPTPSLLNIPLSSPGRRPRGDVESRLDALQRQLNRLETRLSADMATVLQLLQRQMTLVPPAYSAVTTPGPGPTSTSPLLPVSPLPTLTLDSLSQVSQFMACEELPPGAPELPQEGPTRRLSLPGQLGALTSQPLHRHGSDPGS
Chain of Histone deacetylase 1 (Q13547 whole entry): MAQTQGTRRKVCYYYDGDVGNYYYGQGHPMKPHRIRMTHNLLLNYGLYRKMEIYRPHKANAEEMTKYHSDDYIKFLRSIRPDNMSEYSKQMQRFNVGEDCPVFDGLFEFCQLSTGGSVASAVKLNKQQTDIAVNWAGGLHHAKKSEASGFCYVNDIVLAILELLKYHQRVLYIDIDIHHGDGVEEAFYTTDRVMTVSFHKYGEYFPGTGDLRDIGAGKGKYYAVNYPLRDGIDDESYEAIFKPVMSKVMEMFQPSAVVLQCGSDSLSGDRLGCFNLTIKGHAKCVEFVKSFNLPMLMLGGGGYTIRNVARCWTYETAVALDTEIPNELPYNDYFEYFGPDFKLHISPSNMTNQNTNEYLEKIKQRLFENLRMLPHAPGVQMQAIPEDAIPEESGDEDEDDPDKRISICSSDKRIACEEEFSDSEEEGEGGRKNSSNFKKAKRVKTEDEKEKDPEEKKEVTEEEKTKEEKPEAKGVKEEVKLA
Chain of Histone deacetylase 3 (O15379 whole entry): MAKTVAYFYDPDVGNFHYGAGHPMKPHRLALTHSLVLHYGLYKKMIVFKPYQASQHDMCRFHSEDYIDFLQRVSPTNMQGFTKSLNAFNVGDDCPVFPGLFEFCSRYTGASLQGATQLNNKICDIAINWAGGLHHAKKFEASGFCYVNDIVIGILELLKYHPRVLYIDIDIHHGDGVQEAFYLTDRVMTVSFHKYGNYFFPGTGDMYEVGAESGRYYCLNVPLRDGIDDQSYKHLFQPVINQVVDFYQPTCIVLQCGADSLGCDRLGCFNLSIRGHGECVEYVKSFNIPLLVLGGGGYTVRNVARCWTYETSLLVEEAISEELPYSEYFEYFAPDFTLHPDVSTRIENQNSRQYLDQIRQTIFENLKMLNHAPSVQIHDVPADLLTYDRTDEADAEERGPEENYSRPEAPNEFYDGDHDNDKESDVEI

Row | IC50 (Histone deacetylase 1) [nM] | IC50 (HCT-116 [2]) [nM] | IC50 (Histone deacetylase 3) [nM] | SMILES | further results
1 |  |  |  | O=C(Nc1cc(-c2ccccc2)ccc1O)c1ccc(CNCCc2ccccc2)cc1 | Activity (HCT-116 [1]): inactive
2 |  |  |  | O=C(Nc1cc(-c2ccccc2)ccc1O)c1ccc(CNc2ccncc2)cc1 | IC50 (HCT-116 [1]): 1740 nM
3 | 33 | 309 | 6930 | Nc1ccc(-c2ccccc2)cc1NC(=O)c1ccc(CN2CCC3(CCNC3)CC2)cc1 | 
4 | 5030 |  |  | O=C(Nc1cc(Cl)ccc1O)c1ccc(CNc2ccncc2)cc1 | Activity (HCT-116 [1]): inactive
5 | 13 | 276 | 4800 | Nc1ccc(-c2ccc(F)cc2)cc1NC(=O)c1ccc(CN2CCC3(CCNC3)CC2)cc1 | IC50 [3]: 237 nM
6 | 11 | 70 | 4330 | Nc1ccc(-c2cccs2)cc1NC(=O)c1ccc(C(=O)N2CCC3(CCCN3)CC2)cc1 | IC50 [3]: 25100 nM
7 | 8 | 118 | 16500 | Nc1ccc(-c2ccccc2)cc1NC(=O)c1ccc(CN2CCC3(CCCN3)CC2)cc1 | clearance [4]: 45 mL/min/kg; half-life [5]: 8 h; Ratio IC50 (Homo sapiens): 2000; bioavailability [6]: 70%; Vd [7]: 22 L/kg
8 | 1010 |  |  | O=C(NO)c1ccc(CNCCc2cccc(Cl)c2)cc1 | 
9 |  | 3610 | 5380 | CN(Cc1ccc(C(=O)Nc2cc(-c3ccccc3)ccc2N)cc1)c1ccncc1 | 
10 | 8 | 103 | 5100 | Nc1ccc(-c2ccccc2)cc1NC(=O)c1ccc(C(=O)N2CCC3(CCCN3)CC2)cc1 | Vd [8]: 14 L/kg; fold change (FC) [9]: 3; IC50 [3]: 12400 nM; Activity [10]: Not Active; half-life [11]: 8.5 h; half-life [12]: 7 h; clearance [13]: 26 mL/min/kg; Activity [14]: inactive; bioavailability [15]: 17%; clearance [16]: 8.2 mL/min/kg; bioavailability [17]: 4%; Vd [18]: 5.1 L/kg
11 | 477 |  |  | COc1cccc(CNCc2ccc(C(=O)NO)cc2)c1 | 
12 | 7960 |  |  | COc1ccc(O)c(NC(=O)c2ccc(CNc3ccncc3)cc2)c1 | Activity (HCT-116 [1]): inactive
13 | 2010 |  |  | O=C(Nc1cc(F)ccc1O)c1ccc(CNc2ccncc2)cc1 | Activity (HCT-116 [1]): inactive
14 | 1620 |  |  | O=C(NO)c1ccc(CNc2ccc(Cl)cc2)cc1 | 
15 | 12 | 138 | 3200 | Nc1ccc(-c2ccc(F)cc2)cc1NC(=O)c1ccc(C(=O)N2CCC3(CCCN3)CC2)cc1 | 
16 | 11 | 290 | > 50000 | Nc1ccc(-c2ccccc2F)cc1NC(=O)c1ccc(C(=O)N2CCC3(CCCN3)CC2)cc1 | 
17 | 4 | 82 | 9620 | Nc1ccc(-c2cccs2)cc1NC(=O)c1ccc(CN2CCC3(CCCN3)CC2)cc1 | IC50 [3]: 1600 nM
18 | 16 | 470 | 17400 | Nc1ccc(-c2ccccc2F)cc1NC(=O)c1ccc(CN2CCC3(CCCN3)CC2)cc1 | IC50 [3]: 183 nM
19 | 47 | 1070 | 5730 | Nc1ccc(-c2cccc(F)c2)cc1NC(=O)c1ccc(CN2CCC3(CCCN3)CC2)cc1 | 
20 | 20600 |  |  | Cc1ccc(O)c(NC(=O)c2ccc(CNc3ccncc3)cc2)c1 | Activity (HCT-116 [1]): inactive
21 | 24100 |  |  | O=C(NO)c1ccc(CNC2CCCCC2)cc1 | 
22 | 5220 |  |  | O=C(Nc1cc(Br)ccc1O)c1ccc(CNc2ccncc2)cc1 | Activity (HCT-116 [1]): inactive
23 |  | 1740 | 6390 | Nc1ccc(-c2ccccc2)cc1NC(=O)c1ccc(CNc2ccncc2)cc1 | 
24 | 8 | 73 | 8710 | Nc1ccc(-c2ccsc2)cc1NC(=O)c1ccc(CN2CCC3(CCCN3)CC2)cc1 | 
25 | 1570 |  |  | O=C(Nc1ccccc1O)c1ccc(CNc2ccncc2)cc1 | Activity (HCT-116 [1]): inactive
26 |  |  |  | CC(C)CNCc1ccc(C(=O)Nc2cc(-c3ccccc3)ccc2O)cc1 | Activity (HCT-116 [1]): inactive
27 |  |  |  | O=C(Nc1cc(-c2ccccc2)ccc1O)c1ccc(CNCc2cccnc2)cc1 | IC50 (HCT-116 [1]): 1360 nM
28 | 13 |  |  | CC(NCc1ccc(C(=O)Nc2cc(-c3ccccc3)ccc2O)cc1)c1ccncc1 (stereo unspecified) | IC50 (HCT-116 [1]): 1820 nM
29 | 348 |  |  | O=C(NO)c1ccc(CNCc2cccc(Cl)c2)cc1 | 
